In patent US20240239743A1, “1-(4-{1-[(E)-4-CYCLOHEXYL-3-TRIFLUOROMETHYLBENZYLOXYIMINO]-ETHYL}-2-ETHYL-BENZYL)-AZETIDINE-3-CARBOXYLIC ACID, (E)-BUT-2-ENEDIOIC ACID” (Novartis AG, priority 2008, published 2024):

Key:
[1] = Dynamic Vapour Sorption (hygroscopicity); type: physicochemical; settings: 50-0-95-50% r.h.
Excerpt: Dynamic Vapour Sorption measurements were taken using a DVS-1 water vapour sorption analyzer (Surface Measurement Systems Ltd.) or a Projekt Messtechnik SPS11-100n. The sample was allowed to equilibrate at 50% r.h. before starting a pre-defined humidity program (50-0-95-50% r.h., scanning with 5% Δr.h. hour-1 and with several isohumid equilibration periods).

[2] = pressure of 10 tons for 5 minutes; Raman microscope
Protocol: Crystalline form A was also tested for pressure stability by exposing a few milligrams of this form to a pressure of 10 tons for 5 minutes.

[3] = Stability of hemifumarate salt solution relative to free base solution at elevated temperature; type: physicochemical; settings: solution/suspension in ethanol; 40° C., 50° C. and 60° C. for one week; compared with free base
Protocol: 30 g of compound I was prepared using the method of Example 3 of WO2004/103306. The hemifumarate salt of the invention was then prepared by reacting a suspension of 30.0 g of compound I and […] fumaric acid (5% conc.) in 200 g ethanol absolute (>99.9%) at room temperature (25° C.).
The stability of the hemifumarate salt solution relative to the free base solution was then tested by subjecting both solutions to conditions of elevated temperature (40° C., 50° C. and 60° C.) for a period of one week.

Row | Compound | hygroscopicity [1] | pressure stability (change in crystal form) [2] | stability of the hemifumarate salt solution relative to the free base solution [3]
1 | CCc1cc(/C(C)=N/OCc2ccc(C3CCCCC3)c(C(F)(F)F)c2)ccc1CN1CC(C(=O)O)C1.CCc1cc(/C(C)=N/OCc2ccc(C3CCCCC3)c(C(F)(F)F)c2)ccc1CN1CC(C(=O)O)C1.O=C(O)/C=C/C(=O)O [Crystalline Form A] | low hygroscopicity | no change in form was observed | –
2 | CCc1cc(/C(C)=N/OCc2ccc(C3CCCCC3)c(C(F)(F)F)c2)ccc1CN1CC(C(=O)O)C1.O=C(O)/C=C/C(=O)O [hemifumarate salt, 1-(4-{1-[(E)-4-Cyclohexyl-3-trifluoromethyl-benzyloxyimino]-ethyl}-2-ethyl-benzyl)-azetidine-3-carboxylic acid, (E)-but-2-enedioic acid] | – | – | superior stability
